± gives the expanded uncertainty stated by the source.
Columns and labels:
[1] = 101 kPa, Liquid; for viscosity: Capillary tube (Ostwald / Ubbelohde) method; for mass density: Vibrating tube method
[2] = xn = mol fraction of the nth substance listed; details: 101 kPa, Liquid, x2 = 0; for viscosity: Capillary tube (Ostwald / Ubbelohde) method; for mass density: Vibrating tube method

What does the source list for NCCO [2-aminoethan-1-ol]?
viscosity ([1]; 293.15 K): 23.4 ± 0.95 mPa·s; mass density ([1]; 293.15 K): 1016.3 ± 1 kg/m3; viscosity ([1]; 303.15 K): 14.71 ± 0.6 mPa·s; mass density ([1]; 303.15 K): 1008.02 ± 1 kg/m3; viscosity ([1]; 313.15 K): 9.77 ± 0.4 mPa·s; mass density ([1]; 313.15 K): 999.98 ± 1 kg/m3; viscosity ([1]; 323.15 K): 6.83 ± 0.28 mPa·s; mass density ([1]; 323.15 K): 991.97 ± 1 kg/m3

With NCCO [2-aminoethan-1-ol] + CN(CCO)CCO as the compound, how does the viscosity ([2]; 293.15 K) read?
The viscosity was 23.4 ± 0.95 mPa·s.

And the mass density ([2]; 293.15 K)?
The mass density was 1016.3 ± 1 kg/m3.

What about the viscosity ([2]; 303.15 K) of the same compound?
Its viscosity is 14.71 ± 0.6 mPa·s.

And the mass density ([2]; 303.15 K)?
Its mass density is 1008.02 ± 1 kg/m3.

What about the viscosity ([2]; 313.15 K) of the same compound?
The viscosity was 9.77 ± 0.4 mPa·s.

What about the mass density ([2]; 313.15 K) of the same compound?
The mass density was 999.98 ± 1 kg/m3.

And the viscosity ([2]; 323.15 K)?
The viscosity was 6.83 ± 0.28 mPa·s.

And the mass density ([2]; 323.15 K)?
The mass density was 991.97 ± 1 kg/m3.

For CN(CCO)CCO [N-methyldiethanolamine], which viscosity ([1]; 293.15 K) is on record?
The viscosity was 103.04 ± 4.3 mPa·s.

And the mass density ([1]; 293.15 K)?
Its mass density is 1040.5 ± 1 kg/m3.

And the viscosity ([1]; 303.15 K)?
Its viscosity is 57.28 ± 2.3 mPa·s.

And the mass density ([1]; 303.15 K)?
The mass density was 1032.6 ± 1 kg/m3.

What about the viscosity ([1]; 313.15 K) of the same compound?
Its viscosity is 33.94 ± 1.4 mPa·s.

What about the mass density ([1]; 313.15 K) of the same compound?
Its mass density is 1024.76 ± 1 kg/m3.

What about the viscosity ([1]; 323.15 K) of the same compound?
The viscosity was 21.31 ± 0.87 mPa·s.

And the mass density ([1]; 323.15 K)?
The mass density was 1017.12 ± 1 kg/m3.

For CCO [ethanol], which viscosity ([1]; 293.15 K) is on record?
Its viscosity is 1.17 ± 0.05 mPa·s.

What about the mass density ([1]; 293.15 K) of the same compound?
The mass density was 788.88 ± 1 kg/m3.

And the viscosity ([1]; 303.15 K)?
Its viscosity is 0.97 ± 0.04 mPa·s.

And the mass density ([1]; 303.15 K)?
Its mass density is 781.69 ± 1 kg/m3.

And the viscosity ([1]; 313.15 K)?
The viscosity was 0.81 ± 0.03 mPa·s.

What about the mass density ([1]; 313.15 K) of the same compound?
Its mass density is 772.3 ± 1 kg/m3.

And the viscosity ([1]; 323.15 K)?
The viscosity was 0.69 ± 0.03 mPa·s.

What about the mass density ([1]; 323.15 K) of the same compound?
The mass density was 765.29 ± 1 kg/m3.

Which viscosity ([2]; 293.15 K) does the source give for CCO [ethanol] + CN(CCO)CCO here?
Its viscosity is 1.17 ± 0.05 mPa·s.

And the mass density ([2]; 293.15 K)?
The mass density was 788.88 ± 1 kg/m3.

And the viscosity ([2]; 303.15 K)?
The viscosity was 0.97 ± 0.04 mPa·s.

And the mass density ([2]; 303.15 K)?
Its mass density is 781.69 ± 1 kg/m3.

What about the viscosity ([2]; 313.15 K) of the same compound?
Its viscosity is 0.81 ± 0.03 mPa·s.

And the mass density ([2]; 313.15 K)?
Its mass density is 772.3 ± 1 kg/m3.

And the viscosity ([2]; 323.15 K)?
Its viscosity is 0.69 ± 0.03 mPa·s.

And the mass density ([2]; 323.15 K)?
Its mass density is 765.29 ± 1 kg/m3.

For CCO [ethanol] + NCCO, which viscosity ([2]; 293.15 K) is on record?
Its viscosity is 1.17 ± 0.05 mPa·s.

What about the mass density ([2]; 293.15 K) of the same compound?
Its mass density is 788.88 ± 1 kg/m3.

What about the viscosity ([2]; 303.15 K) of the same compound?
Its viscosity is 0.97 ± 0.04 mPa·s.

What about the mass density ([2]; 303.15 K) of the same compound?
The mass density was 781.69 ± 1 kg/m3.

What about the viscosity ([2]; 313.15 K) of the same compound?
The viscosity was 0.81 ± 0.03 mPa·s.

And the mass density ([2]; 313.15 K)?
Its mass density is 772.3 ± 1 kg/m3.

And the viscosity ([2]; 323.15 K)?
Its viscosity is 0.69 ± 0.03 mPa·s.

What about the mass density ([2]; 323.15 K) of the same compound?
Its mass density is 765.29 ± 1 kg/m3.
